Data from PMC10865860 (mBio, 2023).
Where two headings read alike, the source gives them in different places. Where a SMILES comes first, the peptide text is derived from it. The star is where a group is joined. Cbz = O=C(OCc1ccccc1)*

How the values were obtained:
MERS-CoV 3CLpro [1] = target: T1, MERS-CoV 3CLpro (Middle East respiratory syndrome-related coronavirus, UniProt K9N7C7); conditions: read-out: IC50 MERS-CoV (3CLpro); cited from earlier work
neutrophil elastase = target: T2, neutrophil elastase (Homo sapiens, UniProt P08246); assay: biochemical
T2 construct: purchased Sigma-Aldrich
T2 sequence (P08246 30-267): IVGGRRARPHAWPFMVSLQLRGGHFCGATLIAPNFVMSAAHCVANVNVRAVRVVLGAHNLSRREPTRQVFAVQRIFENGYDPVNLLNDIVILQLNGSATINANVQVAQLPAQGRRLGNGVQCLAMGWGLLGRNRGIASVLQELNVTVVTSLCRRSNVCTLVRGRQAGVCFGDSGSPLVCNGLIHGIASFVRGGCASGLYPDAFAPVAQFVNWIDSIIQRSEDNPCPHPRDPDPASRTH

cathepsin G = target: T3, cathepsin G (Homo sapiens, UniProt P08311); assay: biochemical
T3 construct: purchased Novus Biological
T3 sequence (P08311 21-255): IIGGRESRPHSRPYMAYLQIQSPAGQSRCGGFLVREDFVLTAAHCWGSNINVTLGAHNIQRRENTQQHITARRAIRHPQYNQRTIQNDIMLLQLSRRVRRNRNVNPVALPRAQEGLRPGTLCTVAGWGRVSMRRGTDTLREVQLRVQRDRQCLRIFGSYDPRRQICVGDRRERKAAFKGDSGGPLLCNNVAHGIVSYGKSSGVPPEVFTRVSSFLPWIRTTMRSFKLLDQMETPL

cathepsin L = target: T4, cathepsin L (Homo sapiens, UniProt P07711); assay: biochemical
T4 construct: purchased AnaSpec

thrombin = target: T5, thrombin (Homo sapiens, UniProt P00734); assay: biochemical
T5 construct: purchased AnaSpec

chymotrypsin = type: biochemical, human
cathepsin D = target: T6, cathepsin D (Homo sapiens, UniProt P07339); assay: biochemical
T6 construct: purchased Abcam

cathepsin B = target: T7, cathepsin B (Homo sapiens, UniProt P07858); assay: biochemical
T7 construct: purchased Abcam

SARS-CoV-2 3CLpro [2] = target: T8, SARS-CoV-2 3CLpro (Severe acute respiratory syndrome coronavirus 2, UniProt P0DTD1); conditions: read-out: IC50 SARS-CoV-2 (3CLpro); cited from earlier work
[3] = test system: SARS-CoV-2 pseudoviruses in cells expressing hACE2; assay: microbe, parasite or virus in culture; type: cell-based; conditions: Severe acute respiratory syndrome coronavirus 2, HEK-293T, read-out: EC50 Pseudovirus entry assay hACE2
SARS-CoV-2 replicon [4] = conditions: cited from earlier work
[5] = test system: SARS-CoV-2 pseudoviruses in cells expressing hACE2 plus TMPRSS2; assay: microbe, parasite or virus in culture; type: cell-based; conditions: Severe acute respiratory syndrome coronavirus 2, HEK-293T, read-out: EC50 Pseudovirus entry assay hACE2+ TMPRSS2
MERS-CoV 3CLpro [6] = target: T1, MERS-CoV 3CLpro; assay: biochemical
SARS-CoV-2 replicon [7] = assay: microbe, parasite or virus in culture; type: cell-based; conditions: Severe acute respiratory syndrome coronavirus 2, read-out: EC50 SARS-CoV-2 replicon
SARS-CoV-2 3CLpro [8] = target: T8, SARS-CoV-2 3CLpro; assay: biochemical

T1 sequence (K9N7C7 3248-3553 limits assumed): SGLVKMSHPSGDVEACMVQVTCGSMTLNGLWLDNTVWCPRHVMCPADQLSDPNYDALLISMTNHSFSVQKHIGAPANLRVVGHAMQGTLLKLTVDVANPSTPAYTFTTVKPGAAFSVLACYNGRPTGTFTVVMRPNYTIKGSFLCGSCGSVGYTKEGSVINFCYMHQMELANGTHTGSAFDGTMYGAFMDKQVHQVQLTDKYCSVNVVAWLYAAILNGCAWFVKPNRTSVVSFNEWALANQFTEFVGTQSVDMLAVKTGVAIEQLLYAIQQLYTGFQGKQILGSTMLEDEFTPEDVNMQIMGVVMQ
T6 sequence (P07339 65-412): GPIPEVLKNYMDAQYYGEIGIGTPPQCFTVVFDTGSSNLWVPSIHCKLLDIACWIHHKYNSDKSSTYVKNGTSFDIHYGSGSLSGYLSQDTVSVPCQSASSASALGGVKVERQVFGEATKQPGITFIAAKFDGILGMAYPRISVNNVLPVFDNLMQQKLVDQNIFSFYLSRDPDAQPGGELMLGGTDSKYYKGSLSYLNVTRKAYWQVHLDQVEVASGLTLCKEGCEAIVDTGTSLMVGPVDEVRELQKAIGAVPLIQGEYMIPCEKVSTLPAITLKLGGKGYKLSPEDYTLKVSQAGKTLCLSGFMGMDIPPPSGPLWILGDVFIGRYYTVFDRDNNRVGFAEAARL
T4 sequence (P07711 114-333): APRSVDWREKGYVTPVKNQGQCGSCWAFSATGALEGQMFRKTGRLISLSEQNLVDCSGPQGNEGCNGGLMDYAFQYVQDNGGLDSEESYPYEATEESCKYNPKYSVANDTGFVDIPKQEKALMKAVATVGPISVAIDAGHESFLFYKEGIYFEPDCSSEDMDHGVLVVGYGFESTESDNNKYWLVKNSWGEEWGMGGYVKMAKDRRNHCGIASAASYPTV

Question: Which IC50 (MERS-CoV 3CLpro [1]) does the source give for `CC(C)CC(NC(=O)OCC1CC1c1cccc(F)c1)C(=O)NC(C=O)CC1CCNC1=O` (stereo not shown) [5c] here?
Answer: 80 ± 30 nM

Question: And the IC50 (neutrophil elastase)?
Answer: > 50000 nM

Question: What about the IC50 (cathepsin G) of the same compound?
Answer: > 50000 nM

Question: And the IC50 (cathepsin L)?
Answer: 30 ± 10 nM

Question: And the IC50 (thrombin)?
Answer: > 50000 nM

Question: And the IC50 (chymotrypsin)?
Answer: > 50000 nM

Question: And the IC50 (cathepsin D)?
Answer: > 50000 nM

Question: And the IC50 (cathepsin B)?
Answer: 240 ± 50 nM

Question: What about the IC50 (SARS-CoV-2 3CLpro [2]) of the same compound?
Answer: 180 ± 30 nM

Question: And the EC50 [3]?
Answer: 60 ± 30 nM

Question: What about the EC50 (SARS-CoV-2 replicon [4]) of the same compound?
Answer: 12 nM

Question: And the EC50 [5]?
Answer: > 50000 nM

Question: For `CC(C)CC(NC(=O)OCC1CC1c1cccc(F)c1)C(=O)NC(CC1CCNC1=O)C(O)S(=O)(=O)O` (stereo not shown) [5d], which IC50 (MERS-CoV 3CLpro [1]) is on record?
Answer: 70 ± 30 nM

Question: And the IC50 (neutrophil elastase)?
Answer: > 50000 nM

Question: And the IC50 (cathepsin G)?
Answer: > 50000 nM

Question: What about the IC50 (cathepsin L) of the same compound?
Answer: 20 ± 20 nM

Question: What about the IC50 (thrombin) of the same compound?
Answer: > 50000 nM

Question: What about the IC50 (chymotrypsin) of the same compound?
Answer: > 50000 nM

Question: What about the IC50 (cathepsin D) of the same compound?
Answer: > 50000 nM

Question: And the IC50 (cathepsin B)?
Answer: 230 ± 80 nM

Question: What about the IC50 (SARS-CoV-2 3CLpro [2]) of the same compound?
Answer: 190 ± 20 nM

Question: And the EC50 [3]?
Answer: 50 ± 20 nM

Question: What about the EC50 [5] of the same compound?
Answer: > 50000 nM

Question: What does the source list for `COc1ccccc1C1CC1COC(=O)NC(CC(C)C)C(=O)NC(C=O)CC1CCNC1=O` (stereo not shown) [11c]?
Answer: IC50 (MERS-CoV 3CLpro [1]): 120 ± 110 nM; IC50 (neutrophil elastase): > 50000 nM; IC50 (cathepsin G): > 50000 nM; IC50 (cathepsin L): 30 ± 10 nM; IC50 (thrombin): > 50000 nM; IC50 (chymotrypsin): > 50000 nM; IC50 (cathepsin D): > 50000 nM; IC50 (cathepsin B): 310 ± 50 nM; IC50 (SARS-CoV-2 3CLpro [2]): 140 ± 40 nM; EC50 [3]: 130 ± 30 nM; EC50 [5]: > 50000 nM

Question: Which IC50 (MERS-CoV 3CLpro [1]) does the source give for `COc1ccccc1C1CC1COC(=O)NC(CC(C)C)C(=O)NC(CC1CCNC1=O)C(O)S(=O)(=O)O` (stereo not shown) [11d] here?
Answer: 70 ± 10 nM

Question: What about the IC50 (neutrophil elastase) of the same compound?
Answer: > 50000 nM

Question: What about the IC50 (cathepsin G) of the same compound?
Answer: > 50000 nM

Question: And the IC50 (cathepsin L)?
Answer: 20 ± 20 nM

Question: And the IC50 (thrombin)?
Answer: > 50000 nM

Question: And the IC50 (chymotrypsin)?
Answer: > 50000 nM

Question: What about the IC50 (cathepsin D) of the same compound?
Answer: > 50000 nM

Question: And the IC50 (cathepsin B)?
Answer: 270 ± 60 nM

Question: And the IC50 (SARS-CoV-2 3CLpro [2])?
Answer: 140 ± 50 nM

Question: What about the EC50 [3] of the same compound?
Answer: 120 ± 50 nM

Question: And the EC50 (SARS-CoV-2 replicon [4])?
Answer: 12 nM

Question: What about the EC50 [5] of the same compound?
Answer: > 50000 nM

Question: Which results are given for `CC(C)[C@H](NC(=O)OCc1ccccc1)C(=O)N[C@H](C=O)Cc1ccccc1` [MDL28170] (Cbz-Val-Phe-aldehyde)?
Answer: IC50 (MERS-CoV 3CLpro [6]): > 50000 nM; EC50 (SARS-CoV-2 replicon [7]): > 50000 nM; EC50 [3]: 10 ± 30 nM; IC50 (SARS-CoV-2 3CLpro [8]): > 50000 nM; EC50 [5]: > 50000 nM

Question: With `N=C(N)c1ccc2cc(OC(=O)c3ccc(N=C(N)N)cc3)ccc2c1` [Nafamostat] as the compound, how does the IC50 (MERS-CoV 3CLpro [6]) read?
Answer: > 50000 nM

Question: What about the EC50 (SARS-CoV-2 replicon [7]) of the same compound?
Answer: > 50000 nM

Question: And the EC50 [3]?
Answer: > 50000 nM

Question: And the IC50 (SARS-CoV-2 3CLpro [8])?
Answer: > 50000 nM
